ChEMBL document CHEMBL1201862, “PubChem BioAssay data set” (2004)
Active and inactive are the calls of the source.

How the values were obtained:
[1] = test system: Streptococcus sp. 'group A'; experiment: Streptococcus pyogenes SK(-)GAS viability under kanamycin – luminescence, BacTiterGlo, confirmation, counter-screen for streptokinase expression inhibitor project, dose response (AID 1900); format: functional, organism-based
Streptokinase A = molecular target: T1, Streptokinase A (Streptococcus pyogenes serotype M1, UniProt P10520); experiment: viability-normalized secreted streptokinase activity reduction – plasminogen activation absorbance, OD405, dose response (AID 1914); format: functional, Streptococcus pyogenes M1 GAS;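 further: secreted streptokinase activity via plasminogen activation per viability signal from cell pellet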
T1 sequence (P10520 whole entry): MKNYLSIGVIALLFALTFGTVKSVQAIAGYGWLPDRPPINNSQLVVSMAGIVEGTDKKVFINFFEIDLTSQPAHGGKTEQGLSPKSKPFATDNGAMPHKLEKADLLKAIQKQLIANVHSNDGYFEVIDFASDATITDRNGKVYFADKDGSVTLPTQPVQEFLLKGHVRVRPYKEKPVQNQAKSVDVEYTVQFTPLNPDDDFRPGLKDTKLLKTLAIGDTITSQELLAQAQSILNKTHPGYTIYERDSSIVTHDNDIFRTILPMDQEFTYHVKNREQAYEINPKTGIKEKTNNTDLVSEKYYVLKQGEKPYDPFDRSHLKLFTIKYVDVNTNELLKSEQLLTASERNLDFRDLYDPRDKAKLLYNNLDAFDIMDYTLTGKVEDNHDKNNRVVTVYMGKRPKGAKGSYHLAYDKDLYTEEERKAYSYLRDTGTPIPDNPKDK

Streptococcus = experiment: GAS UMAA2166 growth inhibition – luminescence, BacTiterGlo, counter-screen for streptokinase expression inhibitor project, dose response (AID 1915); format: functional, organism-based;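 further: potency for reduction of bacterial viability or growth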
Mu-type opioid receptor = Mu-type opioid receptor (Homo sapiens, UniProt P35372); format: functional, cell-based;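 further: U2OS cells with beta-arrestin recruitment to OPRM1 by beta-gal complementation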
[2] = molecular target: 5-hydroxytryptamine receptor 2A (Mus musculus, UniProt P35363); format: functional, cell-based;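 further: CHO-K1 cells with tagged receptor and beta-arrestin; agonist potency measured as compound-induced activation of the receptor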
[3] = molecular target: 26S proteasome non-ATPase regulatory subunit 14 (Homo sapiens, UniProt O00487); experiment: inhibition of proteasome subunit RPN11 – biochemical, fluorescence polarization, uHTS hits, confirmation (AID 602368); format: functional
[4] = molecular target: 72 kDa type IV collagenase (Homo sapiens, UniProt P08253); experiment: Dose Response validation of uHTS RPN11 inhibitor hits using a MMP-2 Fluorescence assay.; format: functional
Prothrombin = Prothrombin (Bos taurus, UniProt P00735); experiment: thrombin protease inhibitors – biochemical, fluorescence polarization, uHTS hits, dose response (AID 602369); format: functional
[5] = molecular target: T2, Small ubiquitin-related modifier 1 (Homo sapiens, UniProt P63165); experiment: SUMO1 protein interaction blockers, potency – biochemical, fluorescence polarization, uHTS hits, dose response (AID 624382); format: functional; conditions: read-out: IC50_Mean
[6] = molecular target: T2, Small ubiquitin-related modifier 1; experiment: SUMO1 protein-protein binding blockers, potency – biochemical, FRET, dose response (AID 624383); format: functional; conditions: read-out: IC50_Mean
[7] = molecular target: T3, Rac GTPase-activating protein 1 (Homo sapiens, UniProt Q9H0H5); experiment: blockers of MgcRacGAP-driven Rac1 GTP hydrolysis – biochemical, ADP Hunter fluorescence, primary and confirmatory, confirmation (AID 624330); format: functional
T3 sequence (Q9H0H5 whole entry): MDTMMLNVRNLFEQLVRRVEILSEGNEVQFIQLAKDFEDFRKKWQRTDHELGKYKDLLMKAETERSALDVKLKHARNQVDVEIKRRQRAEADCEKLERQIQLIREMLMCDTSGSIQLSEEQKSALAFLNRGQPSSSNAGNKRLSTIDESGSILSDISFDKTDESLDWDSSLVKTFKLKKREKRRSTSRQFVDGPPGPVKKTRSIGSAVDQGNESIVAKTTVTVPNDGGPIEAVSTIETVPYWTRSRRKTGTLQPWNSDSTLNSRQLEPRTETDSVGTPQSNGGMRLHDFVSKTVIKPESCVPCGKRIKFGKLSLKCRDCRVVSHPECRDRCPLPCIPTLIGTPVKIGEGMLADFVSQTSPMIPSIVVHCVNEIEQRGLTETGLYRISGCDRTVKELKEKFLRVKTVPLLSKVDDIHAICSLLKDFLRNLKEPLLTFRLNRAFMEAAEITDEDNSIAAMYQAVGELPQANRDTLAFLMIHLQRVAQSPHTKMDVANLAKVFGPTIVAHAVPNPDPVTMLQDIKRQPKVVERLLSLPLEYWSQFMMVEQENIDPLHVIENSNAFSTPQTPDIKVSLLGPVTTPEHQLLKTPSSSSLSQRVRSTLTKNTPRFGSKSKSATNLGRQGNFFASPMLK

[8] = molecular target: T4, Sentrin-specific protease 1 (Homo sapiens, UniProt Q9P0U3); experiment: SENP1 catalytic domain blockers, concentration series – biochemical, kinetic FRET, dose response (AID 651697); format: functional; conditions: read-out: IC50_Mean
[9] = molecular target: T4, Sentrin-specific protease 1; experiment: Dose response confirmation of small molecule inhibitors of the catalytic domain of the SUMO protease, SENP1 in a FRET assay.; format: functional; conditions: read-out: IC50_Mean
[10] = mouse fibroblast viability loss – cell-based, cherry-pick samples, set 2, cytotoxicity control for T. cruzi growth inhibitor project, dose response (AID 651817); format: functional; conditions: NIH3T3
[11] = viability loss in mouse NIH3T3 cells – cell-based, CellTiter-Glo luminescence, dry powder, cytotoxicity control for PglD inhibitor project, dose response (AID 652044); format: functional
[12] = molecular target: T5, Alkaline phosphatase, tissue-nonspecific isozyme (Homo sapiens, UniProt P05186)
T5 sequence (P05186 whole entry): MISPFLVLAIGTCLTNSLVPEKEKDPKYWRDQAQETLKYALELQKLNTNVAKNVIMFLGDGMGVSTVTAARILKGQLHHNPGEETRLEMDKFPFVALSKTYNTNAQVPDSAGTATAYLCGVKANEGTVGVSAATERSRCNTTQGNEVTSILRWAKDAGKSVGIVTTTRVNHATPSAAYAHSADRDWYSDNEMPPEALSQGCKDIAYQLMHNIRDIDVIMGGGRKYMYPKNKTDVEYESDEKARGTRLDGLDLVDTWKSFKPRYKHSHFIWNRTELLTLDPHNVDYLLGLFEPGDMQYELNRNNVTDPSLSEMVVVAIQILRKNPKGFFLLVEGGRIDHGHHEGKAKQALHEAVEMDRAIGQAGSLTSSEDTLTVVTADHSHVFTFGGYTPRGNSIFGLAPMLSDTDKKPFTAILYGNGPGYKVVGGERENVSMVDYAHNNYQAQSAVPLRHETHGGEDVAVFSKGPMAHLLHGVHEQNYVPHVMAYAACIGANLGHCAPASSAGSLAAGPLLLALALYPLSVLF

Beta-lactamase [13] = molecular target: Beta-lactamase (Pseudomonas aeruginosa, UniProt Q79MP6);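 further: biochemical dose-response test of metallo-beta-lactamase enzyme inhibition, read out by epi-absorbance; purified recombinant IMP-1 metallo-beta-lactamase with nitrocefin as substrate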
Beta-lactamase [14] = molecular target: Beta-lactamase (Salmonella choleraesuis (strain SC-B67), UniProt Q5J463)
[15] = molecular target: ATP-dependent translocase ABCB1 (Homo sapiens, UniProt P08183); experiment: inhibition of P-gp mediated JC-1 efflux – Jurkat-DNR cells, flow cytometry, dose response (AID 1689); format: functional
ATP-dependent translocase ABCB1, sequence (P08183 whole entry): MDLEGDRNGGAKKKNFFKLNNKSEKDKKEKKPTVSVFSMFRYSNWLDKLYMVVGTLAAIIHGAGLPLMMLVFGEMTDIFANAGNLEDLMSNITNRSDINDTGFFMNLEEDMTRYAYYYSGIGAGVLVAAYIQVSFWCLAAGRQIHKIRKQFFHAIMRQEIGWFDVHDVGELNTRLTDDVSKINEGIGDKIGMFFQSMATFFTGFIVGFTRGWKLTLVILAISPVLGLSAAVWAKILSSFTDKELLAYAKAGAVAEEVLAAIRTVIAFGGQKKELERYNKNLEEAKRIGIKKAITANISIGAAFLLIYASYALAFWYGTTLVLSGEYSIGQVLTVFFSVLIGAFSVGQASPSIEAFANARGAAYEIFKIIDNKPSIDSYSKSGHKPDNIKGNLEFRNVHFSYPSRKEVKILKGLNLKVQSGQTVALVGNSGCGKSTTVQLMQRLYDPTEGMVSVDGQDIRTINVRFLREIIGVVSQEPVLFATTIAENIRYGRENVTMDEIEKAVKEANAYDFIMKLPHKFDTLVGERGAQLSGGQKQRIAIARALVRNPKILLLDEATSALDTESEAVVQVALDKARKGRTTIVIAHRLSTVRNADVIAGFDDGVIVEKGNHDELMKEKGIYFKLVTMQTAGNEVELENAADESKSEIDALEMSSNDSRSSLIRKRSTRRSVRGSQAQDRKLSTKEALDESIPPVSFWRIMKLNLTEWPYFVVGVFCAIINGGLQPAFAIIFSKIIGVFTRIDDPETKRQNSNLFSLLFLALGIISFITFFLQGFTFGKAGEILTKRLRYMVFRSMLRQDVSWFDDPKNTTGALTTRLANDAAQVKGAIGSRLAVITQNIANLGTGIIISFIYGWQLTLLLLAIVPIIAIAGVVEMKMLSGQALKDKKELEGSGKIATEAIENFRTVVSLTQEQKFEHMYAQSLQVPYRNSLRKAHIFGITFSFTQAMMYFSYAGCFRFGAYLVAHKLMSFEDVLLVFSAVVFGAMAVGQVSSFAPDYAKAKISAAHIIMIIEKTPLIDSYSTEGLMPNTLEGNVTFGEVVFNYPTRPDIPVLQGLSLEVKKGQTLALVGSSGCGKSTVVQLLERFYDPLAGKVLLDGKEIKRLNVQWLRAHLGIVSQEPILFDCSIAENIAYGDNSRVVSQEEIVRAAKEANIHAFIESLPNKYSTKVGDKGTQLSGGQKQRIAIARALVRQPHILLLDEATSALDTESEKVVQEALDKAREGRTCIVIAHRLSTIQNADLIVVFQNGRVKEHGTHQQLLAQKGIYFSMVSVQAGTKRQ

T4 sequence (Q9P0U3 whole entry, the tested form may be a part): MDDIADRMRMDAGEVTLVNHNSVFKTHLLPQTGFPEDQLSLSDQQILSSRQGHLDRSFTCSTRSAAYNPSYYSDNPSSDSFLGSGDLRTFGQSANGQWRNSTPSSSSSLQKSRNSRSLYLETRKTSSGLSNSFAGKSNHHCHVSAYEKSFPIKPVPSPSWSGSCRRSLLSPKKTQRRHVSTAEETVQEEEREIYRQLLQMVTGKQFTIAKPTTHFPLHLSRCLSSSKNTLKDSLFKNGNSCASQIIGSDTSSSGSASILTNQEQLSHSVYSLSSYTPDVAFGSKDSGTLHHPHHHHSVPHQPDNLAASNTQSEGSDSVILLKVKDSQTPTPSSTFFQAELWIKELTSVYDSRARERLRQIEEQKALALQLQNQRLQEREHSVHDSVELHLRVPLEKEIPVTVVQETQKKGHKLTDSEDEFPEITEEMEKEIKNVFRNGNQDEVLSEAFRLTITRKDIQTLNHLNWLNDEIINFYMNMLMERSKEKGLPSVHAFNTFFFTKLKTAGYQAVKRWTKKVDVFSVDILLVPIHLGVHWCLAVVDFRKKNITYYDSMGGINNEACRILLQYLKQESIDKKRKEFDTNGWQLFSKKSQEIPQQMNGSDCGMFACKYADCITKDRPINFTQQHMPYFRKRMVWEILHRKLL
T2 sequence (P63165 whole entry): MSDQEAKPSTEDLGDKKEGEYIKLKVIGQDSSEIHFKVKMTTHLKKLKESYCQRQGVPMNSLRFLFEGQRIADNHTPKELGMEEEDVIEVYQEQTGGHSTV
Mu-type opioid receptor, sequence (P35372 whole entry): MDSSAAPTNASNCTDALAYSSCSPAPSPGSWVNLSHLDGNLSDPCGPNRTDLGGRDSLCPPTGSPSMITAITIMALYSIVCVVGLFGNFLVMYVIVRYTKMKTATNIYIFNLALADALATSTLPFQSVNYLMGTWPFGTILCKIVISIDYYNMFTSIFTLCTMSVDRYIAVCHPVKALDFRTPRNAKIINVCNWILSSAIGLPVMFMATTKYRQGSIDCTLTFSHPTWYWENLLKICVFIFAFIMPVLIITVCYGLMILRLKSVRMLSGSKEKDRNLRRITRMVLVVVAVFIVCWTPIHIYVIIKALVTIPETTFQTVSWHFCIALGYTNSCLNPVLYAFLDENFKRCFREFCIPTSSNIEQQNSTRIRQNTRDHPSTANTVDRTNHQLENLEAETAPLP
Beta-lactamase (Salmonella choleraesuis (strain SC-B67), UniProt Q5J463), sequence (Q5J463 whole entry): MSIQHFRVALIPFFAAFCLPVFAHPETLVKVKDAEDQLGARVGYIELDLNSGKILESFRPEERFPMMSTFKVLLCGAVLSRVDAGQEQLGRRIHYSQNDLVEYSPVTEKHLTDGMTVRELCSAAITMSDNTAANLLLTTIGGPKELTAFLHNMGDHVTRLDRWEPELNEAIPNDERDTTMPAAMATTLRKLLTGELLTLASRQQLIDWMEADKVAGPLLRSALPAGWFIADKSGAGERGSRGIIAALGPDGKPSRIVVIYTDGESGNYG
5-hydroxytryptamine receptor 2A, sequence (P35363 whole entry): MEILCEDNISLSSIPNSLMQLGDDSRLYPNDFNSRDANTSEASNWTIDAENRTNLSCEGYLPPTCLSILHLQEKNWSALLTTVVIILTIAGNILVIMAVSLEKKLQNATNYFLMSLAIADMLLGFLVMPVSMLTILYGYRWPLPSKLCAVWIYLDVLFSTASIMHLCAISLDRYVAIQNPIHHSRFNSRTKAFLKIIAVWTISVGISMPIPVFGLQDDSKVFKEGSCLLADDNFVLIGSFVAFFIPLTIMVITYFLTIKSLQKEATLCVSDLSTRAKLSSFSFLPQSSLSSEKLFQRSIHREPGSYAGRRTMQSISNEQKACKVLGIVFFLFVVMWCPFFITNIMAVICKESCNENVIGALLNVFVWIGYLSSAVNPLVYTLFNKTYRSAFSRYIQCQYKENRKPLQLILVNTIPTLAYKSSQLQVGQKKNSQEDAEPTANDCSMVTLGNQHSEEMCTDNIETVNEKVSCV
72 kDa type IV collagenase, sequence (P08253 whole entry): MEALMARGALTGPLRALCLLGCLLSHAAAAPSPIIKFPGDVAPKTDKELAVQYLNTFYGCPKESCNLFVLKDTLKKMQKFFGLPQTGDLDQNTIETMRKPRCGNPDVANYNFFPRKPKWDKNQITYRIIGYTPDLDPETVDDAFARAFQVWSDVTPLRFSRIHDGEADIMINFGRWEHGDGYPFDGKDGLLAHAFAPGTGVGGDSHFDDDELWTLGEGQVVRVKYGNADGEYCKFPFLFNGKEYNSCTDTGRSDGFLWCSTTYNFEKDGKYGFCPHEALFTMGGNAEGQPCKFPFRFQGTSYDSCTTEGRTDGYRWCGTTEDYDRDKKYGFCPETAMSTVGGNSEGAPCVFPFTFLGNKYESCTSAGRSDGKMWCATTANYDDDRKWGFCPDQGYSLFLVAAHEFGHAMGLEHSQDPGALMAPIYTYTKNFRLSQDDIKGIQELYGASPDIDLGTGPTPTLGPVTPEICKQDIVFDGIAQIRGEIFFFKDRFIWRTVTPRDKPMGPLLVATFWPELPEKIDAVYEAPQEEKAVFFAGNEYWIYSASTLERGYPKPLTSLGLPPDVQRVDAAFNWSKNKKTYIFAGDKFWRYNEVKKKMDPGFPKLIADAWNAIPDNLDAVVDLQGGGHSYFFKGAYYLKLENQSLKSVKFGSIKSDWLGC
26S proteasome non-ATPase regulatory subunit 14, sequence (O00487 whole entry): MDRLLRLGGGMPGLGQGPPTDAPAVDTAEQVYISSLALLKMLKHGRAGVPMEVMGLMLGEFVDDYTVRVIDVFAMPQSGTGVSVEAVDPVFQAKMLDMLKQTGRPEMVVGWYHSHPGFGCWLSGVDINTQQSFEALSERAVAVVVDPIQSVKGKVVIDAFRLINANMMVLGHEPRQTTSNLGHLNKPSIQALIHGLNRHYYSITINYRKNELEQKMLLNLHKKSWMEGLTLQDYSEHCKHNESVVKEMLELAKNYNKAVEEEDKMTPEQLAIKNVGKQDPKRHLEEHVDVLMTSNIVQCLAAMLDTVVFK
Beta-lactamase (Pseudomonas aeruginosa, UniProt Q79MP6), sequence (Q79MP6 whole entry): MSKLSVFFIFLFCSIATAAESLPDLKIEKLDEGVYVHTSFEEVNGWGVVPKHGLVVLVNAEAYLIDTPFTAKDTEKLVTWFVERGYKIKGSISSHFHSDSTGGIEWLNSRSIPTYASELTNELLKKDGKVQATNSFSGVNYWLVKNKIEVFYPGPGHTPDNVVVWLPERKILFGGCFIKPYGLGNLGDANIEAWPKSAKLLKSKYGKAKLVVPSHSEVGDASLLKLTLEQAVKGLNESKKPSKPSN

With `Nc1nc(CN2CCN(c3ccccc3)CC2)nc(N2CCCc3ccccc32)n1` the EC50 [1] was 9.04 µM (active), the EC50 (Streptokinase A) was > 150 µM (not active) and the EC50 (Streptococcus) was > 150 µM (not active). The EC50 (Mu-type opioid receptor) was 92.5 µM (inactive) and the EC50 [2] was 0.939 µM (active).

For `CCCc1c(C)nc2ccc(C(=O)O)cc2c1S`, the IC50 [3] was 22.8 µM (active), the IC50 [4] was > 100 µM (inactive) and the IC50 (Prothrombin) was 72.7 µM (active). For the same molecule, the IC50 [5] was > 66.6 µM (inactive), the IC50 [6] was 18 µM (active) and the IC50 [7] was 72.6 µM (active).

For `CC(=O)Oc1ccc(Cl)cc1/C=C/c1ccc2ccccc2n1`, the IC50 [8] was 3.28 µM (active) and the IC50 [9] was 2.22 µM (active).

In the case of `C[C@@H]1CN([C@H](C)CO)C(=O)c2cccc(NC(=O)c3nc4ccccc4s3)c2O[C@H]1CN(C)S(=O)(=O)c1ccccc1`, the AC50 [10] is reported as 39 µM (inactive).

For `COc1ccc(C#Cc2cnc3c(c2)C(=O)N([C@@H](C)CO)C[C@H](C)[C@H](CN(C)CC2CCCC2)O3)cc1`, the AC50 [11] was 25.2 µM (active).

In the case of `CCN1/C(=C/C=C/c2oc3ccc4ccccc4c3[n+]2CC)Oc2ccc3ccccc3c21`, the EC50 [12] is reported as > 100 µM (not active), the IC50 (Beta-lactamase [13]) is reported as > 59.6 µM (inactive) and the IC50 (Beta-lactamase [14]) is reported as > 59.6 µM (inactive). The EC50 [15] was 0.713 µM (active).
